{"source": "patent US6599713B1", "about": "“Method for quantitating leukocyte count in whole blood sample” (priority 1999, dated 2003)", "key": {"[1]": {"test_system": "white blood cells contained in the whole blood", "assay": "Concentration of surfactant and release amount of MPO in whole blood, ELISA (Example 2)", "assay_type": "cell-based, human", "conditions": "60 minutes on ice, mean ± SD of 3", "experimental": "10 ml of healthy human whole blood was collected and immediately mixed with 10 mg of EDTA-2K (manufactured and sold by Dojin Laboratories, Japan), and the resultant EDTA-containing whole blood sample was subjected to the below-described various measurements within 1 hour from the blood collection.\n500 μl of the blood was put in a 2-ml Eppendorf tube, and 500 μl of an aqueous surfactant solution having a surfactant concentration of 0.1, 0.2, 0.4, 0.6, 1, 2, 4, 10 or 20% (w/v) was added to the tube, and the resultant mixture was stirred for 2 seconds by a Vortex mixer. Subsequently, the mixture was allowed to stand for 60 minutes on ice to thereby lyze the white blood cells. […] After the lysis of the white blood cells, 100 μl of the mixture was taken out and added to 900 μl of a PBS solution containing dissolved therein 1% BSA (trade name: “Sigma fraction V”, manufactured and sold under the brand of SIGMA™, U.S.A.). The resultant mixture was stirred by a Vortex mixer, and then 10 μl of the mixture was taken out and diluted 2,000-fold with 1% BSA/PBS solution. The resultant diluted mixture was subjected to a measurement by ELISA.\nThe outline of the ELISA is as follows. A 5 μg/ml PBS solution of a rabbit anti-human myeloperoxidase antibody (manufactured and sold by Calbiochem-Novabiochem Corporation, U.S.A.)(hereinafter, frequently referred to as “anti-MPO antibody”) was put into the wells of a Nunc Immuno Plate (manufactured and sold by Nalge Nunc International, Denmark) in an amount of 100 μl per well. The solution in each well was sealed and subjected to a reaction for 18 hours at 4° C. thereby immobilizing the primary antibody. The wells were washed with a washing solution (0.05% Tween™ 20/PBS) and then subjected to blocking for 1 hour at room temperature by using 200 μl of a blocking solution (1% BSA/PBS), and then washed twice with the washing solution. Then, the above-obtained diluted mixture (blood sample which had been treated with a surfactant and then diluted) was put in the wells in an amount of 100 μl per well, and subjected to a reaction for 2 hours at room temperature. Then, the wells were washed 3 times with the washing solution, and a 5 μg/ml solution of an anti-MPO antibody labeled with horseradish peroxidase (hereinafter referred to as “HRP”) was put in the wells in an amount of 100 μl per well, and subjected to a reaction for 1 hour at room temperature. As the above-mentioned HRP-labeled anti-MPO antibody, an anti-human MPO antibody (manufactured and sold by Calbiochem-Novabiochem Corporation, U.S.A.) which had been labeled with HRP Grade IV (manufactured and sold under the brand of SIGMA™, U.S.A.) was employed. The labeling was performed by the method described in Analytical Biochemistry, 132, 68-73 (1983). The wells were washed 5 times with the washing solution, and 100 1 μl of a just-prepared TMB solution (manufactured and sold by Kirkegaad & Perry Laboratories, U.S.A.) was added thereto to effect a color reaction. 2 Minutes after the start of the color reaction, 100 μl of a 1 N sulfuric acid solution (manufactured and sold by Nacalai Tesque, Inc., Japan) was added to the wells to thereby terminate the reaction. Then, the absorbance at 450 nm was measured by means of a plate reader (manufactured and sold by Bio-Rad Laboratories, U.S.A.). The measurement was conducted 3 times, and a mean value±standard deviation was obtained."}, "[2]": {"test_system": "white blood cells contained in the whole blood", "assay": "Time required for lyzing white blood cells: MPO released from whole blood by surfactant, MPO enzyme immunoassay kit (Example 1)", "assay_type": "cell-based, human", "conditions": "room temperature; for MPO concentration of whole blood: 100 μl of 11% solution per 1 ml healthy human whole blood, mean ± SD of 3", "experimental": "10 ml of healthy human whole blood was collected in a test tube containing 10 mg of EDTA-2K (manufactured and sold by Dojin Laboratories, Japan) and the resultant EDTA-containing whole blood sample was stirred well, and then 1 ml of the whole blood sample was taken out from the test tube. To the 1 ml whole blood sample taken out from the test tube was added 100 μl of an aqueous 11% solution of Triton™ X-100 (manufactured and sold under the brand of SIGMA™, U.S.A.), and the resultant mixture was stirred well and then allowed to stand at room temperature for 1 minute to obtain a (whole blood sample/surfactant) mixture containing the lyzed white blood cells. Substantially the same operation as mentioned above was repeated except that the standing time at room temperature was changed to 5 minutes, 30 minutes and 60 minutes to thereby lyze the white blood cells contained in the whole blood.\nAfter the above-mentioned period of time, each of the obtained (whole blood sample/surfactant) mixtures containing the lyzed white blood cells was individually diluted 2,000-fold with a sample diluting buffer (20 mM phosphate buffer (pH 7.4) containing 0.1% bovine serum albumin and 0.2% sodium azide), which buffer is attached to BIOXYTEC™ MPO Enzyme Immunoassay kit (manufactured and sold by OXIS International, Inc., U.S.A.), and the resultant diluted mixture was taken as a sample for the measurement of myeloperoxidase (MPO).\nWith respect to the above-mentioned sample for the measurement of MPO and a standard MPO solution (which is obtained by dissolving commercially available MPO in the above mentioned buffer), the measurement of the MPO concentration was performed using BIOXYTEC™ MPO Enzyme Immunoassay kit (manufactured and sold by OXIS International, Inc., U.S.A.) in accordance with the instruction manual attached thereto.\nSpecifically, with respect to the measurement of the MPO concentration of the above-mentioned sample, MPO (manufactured and sold by Elastin Products Co., INC., U.S.A.) was added to the sample so that the final concentration of the added MPO became 5 ng/ml or 10 ng/ml, and the resultant mixture was measured with respect to the MPO concentration. From the obtained value of MPO concentration, a calibration curve for each sample was obtained. The obtained calibration curve was corrected, based on its relationship with a calibration curve obtained with respect to the standard MPO solution, and the corrected calibration curve of each sample was used to determine the MPO concentration of the whole blood. The measurement was conducted 3 times, and a mean value±standard deviation was obtained."}}}
{"substance": "α-[4-(1,1,3,3,-Tetramethylbutyl)phenyl]-ω-hydroxypoly(oxy-1,2-ethanediyl) [Triton ™ X-100]", "values": [{"measurement": "Release amount of MPO in whole blood", "setting": "[1]; concentration of surfactant 0.05 % (w/v)", "result": "0.104 ± 0.005", "unit": "Abs. 450 nm"}, {"measurement": "Release amount of MPO in whole blood", "setting": "[1]; concentration of surfactant 0.10 % (w/v)", "result": "0.161 ± 0.009", "unit": "Abs. 450 nm"}, {"measurement": "Release amount of MPO in whole blood", "setting": "[1]; concentration of surfactant 0.20 % (w/v)", "result": "0.202 ± 0.006", "unit": "Abs. 450 nm"}, {"measurement": "Release amount of MPO in whole blood", "setting": "[1]; concentration of surfactant 0.30 % (w/v)", "result": "0.228 ± 0.009", "unit": "Abs. 450 nm"}, {"measurement": "Release amount of MPO in whole blood", "setting": "[1]; concentration of surfactant 0.50 % (w/v)", "result": "0.262 ± 0.005", "unit": "Abs. 450 nm"}, {"measurement": "Release amount of MPO in whole blood", "setting": "[1]; concentration of surfactant 1.00 % (w/v)", "result": "0.245 ± 0.011", "unit": "Abs. 450 nm"}, {"measurement": "Release amount of MPO in whole blood", "setting": "[1]; concentration of surfactant 2.00 % (w/v)", "result": "0.216 ± 0.004", "unit": "Abs. 450 nm"}, {"measurement": "Release amount of MPO in whole blood", "setting": "[1]; concentration of surfactant 5.00 % (w/v)", "result": "0.228 ± 0.007", "unit": "Abs. 450 nm"}, {"measurement": "Release amount of MPO in whole blood", "setting": "[1]; concentration of surfactant 10.00 % (w/v)", "result": "0.227 ± 0.007", "unit": "Abs. 450 nm"}, {"measurement": "Time from start of treatment within which MPO is released from the white blood cells to a satisfactory extent", "setting": "[2]; healthy human whole blood", "result": "≤ 60", "unit": "min"}, {"measurement": "MPO concentration of whole blood", "setting": "[2]; treatment time 1 minute", "result": "9.88 ± 0.50", "unit": "µg/mL"}, {"measurement": "MPO concentration of whole blood", "setting": "[2]; treatment time 5 minutes", "result": "10.17 ± 0.63", "unit": "µg/mL"}, {"measurement": "MPO concentration of whole blood", "setting": "[2]; treatment time 30 minutes", "result": "9.94 ± 0.72", "unit": "µg/mL"}, {"measurement": "MPO concentration of whole blood", "setting": "[2]; treatment time 60 minutes", "result": "10.01 ± 0.22", "unit": "µg/mL"}]}
